Patent publication US20090274731A1, “PRODUCTION OF ENVELOPED PHARMACEUTICAL DOSAGE FORMS” (ABBOTT GMBH & CO. KG, priority 2006, published 2009)

Test: Relative solubility of paracetamol in the release media
Type: physicochemical
Details: in 20% ethanol compared with 0.01 M HCl; in words

CC(=O)Nc1ccc(O)cc1 [paracetamol]
solubility: distinctly more soluble
